# Assay: in vitro
# Settings: human, hela cells, % viability
row,SMILES,"viability at 28.5 h, 10 µM"
1,Fc1ccc(Oc2nccnc2N2CCN(CCOc3cccnc3)CC2)cc1 [CBK083037T],98.7%
2,O=C1CCCN1CCCNC(=O)N1CCCC(CO)C1 (stereo not drawn) [CBK156063],94.3%
3,Cn1nc(C(Cc2ccccc2)NC(=O)c2ccco2)c2cccnc21 (stereo not drawn) [CBK285223],97.1%
4,Cc1cc(C)c2c(CC(=O)NNC(=O)COc3ccccc3)coc2c1 [CBK269169],94.1%
5,CN(C)CCP(=O)(c1ccccc1)c1ccccc1 [CBK026596],109%
6,CN1CC[C@H](c2nc3ncccc3[nH]2)C1 [CBK289384],76.8%
7,CSCCN1CCN(c2nccnc2OCc2cccnc2)CC1 [CBK083146],91%
8,COc1ccc(C=CC(=O)N(C)c2ccccc2C(=O)O)cc1 [CBK296135],106%
9,NC(=O)CN1CC2(CCN(CC(=O)Nc3ccc(F)c(Cl)c3)CC2)c2ccccc21 [CBK126790],99.2%
10,O=C(NCc1ccncc1)c1csc2c(C(F)(F)F)cc(N3CCN(Cc4ccccc4)CC3)nc12 [CBK034294T],98.6%
11,NC(=O)c1ccccc1NC(=S)NC(=O)c1cc2ccccc2o1 [CBK265633],81.3%
12,CCOC(=O)c1c(NC(=O)c2ccccc2C(=O)O)sc2c1CCCC2 [CBK116364],113%
13,Cc1cc(CN(C)Cc2cnn(-c3ccc(Cl)cc3)c2)n[nH]1 [CBK281912],99.3%
14,O=C(CN1C2CCC1CC(O)(c1ccco1)C2)N1CCCCC1 (stereo not drawn) [CBK284093],90.3%
15,Cc1nc2c(c(=O)[nH]1)CC[C@@H]1CN(C(=O)CCc3ccccc3)C[C@H]21 [CBK284414],95.9%
16,Cc1nncn1-c1ccc(Cl)cc1C(=O)c1ccccc1Cl [CBK012372],101%
17,Nc1ccccc1Sc1ccc(C(F)(F)F)cn1 [CBK093782],91.9%
18,CCn1cc(C(=O)N2CCOC(C(=O)O)C2)c(=O)c2ccc(C)nc21 (stereo not drawn) [CBK307165],83.5%
19,CNc1nc(C2CCN(C(=O)c3ccc(N4CCC(C)CC4)cc3)C2)nc2c1CCN(C)C2 (stereo not drawn) [CBK285835],106%
20,COc1ccc([C@@]23CC[C@@H](NC(=O)Nc4ccc(Cl)c(F)c4)C[C@@H]2N(C(C)C)CC3)cc1OC [CBK056852T],99.2%
21,COc1ccccc1-c1cnc2[nH]c(=O)n([C@@H](C)c3ccccc3)c2n1 [CBK064717],93.3%
22,O=C(CSc1nnc(COc2cccc3cccnc23)n1-c1ccccc1)N1CCCC1 [CBK269614],79.1%
23,O=C(NCCn1nc(-c2cccs2)ccc1=O)c1ccco1 [CBK283838],90.1%

row,SMILES,"viability at 28.5 h, 10 µM"
1,O=C(/C=C/c1cn(-c2ccccc2)nc1-c1cc2ccccc2oc1=O)NCc1ccccc1 [CBK266530],100%
2,OC(Cn1ccnc1)C1CCCCC1 (stereo not drawn) [CBK010092],78.3%
3,CCN1CC2(CCN(CCCN(C)C)CC2)c2ccccc21 [CBK136988],84.5%
4,Cc1cc(C(=O)NCCn2ccnc2C)c2ccccc2n1 [CBK281895],100%
5,N#Cc1ccc(CN2CCOC3(CCN(C(=O)OCc4ccccc4)CC3)C2)cc1 [CBK161103T],99.1%
6,Cc1cc(C)nc(N2CCC(CC(=O)NCCCc3ccc(F)cc3)CC2)n1 [CBK285995],83.1%
7,CCOC(=O)c1cccc(NS(=O)(=O)c2ccc(NC(C)=O)cc2)c1 [CBK034349],78.8%
8,CCC(c1cccnc1)N(C)C(=O)c1ccc(=O)n(C)c1 (stereo not drawn) [CBK306802],101%
9,COc1ccc2[nH]cc(CCNC(=O)c3ccc4nc[nH]c4c3)c2c1 [CBK122714],94.5%
10,CN(C)C(=O)c1cc(-c2ccco2)cnc1NS(C)(=O)=O [CBK076490],116%
11,O=C(Nc1cccc(Cl)c1)C1CCC(C(=O)Nc2cccc(Cl)c2)CC1 (stereo not drawn) [CBK269136],85.8%
12,OC1(c2cccnc2F)CCN(Cc2ccc(Cl)cc2)CC1 [CBK284368],102%
13,CC(C)(C)c1ccccc1NC(=O)N(CCCN)Cc1cc(F)cc(F)c1 [CBK034697C],82.7%
14,CCOC(=O)C1=C(C)NC(=O)NC1c1ccc(-c2cccc([N+](=O)[O-])c2)o1 (stereo not drawn) [CBK072102],109%
15,Oc1cc(C(F)(F)F)nc(NCc2ccc(-c3ccccc3)cc2)n1 [CBK002395],105%
16,CCn1cc(-c2cncn2CCOc2ccc(Cl)cc2)cn1 [CBK281776],81.8%
17,CC1CCc2c(sc(NC(=O)c3cc(-c4cccnc4)nc4ccc(Cl)cc34)c2C(N)=O)C1 (stereo not drawn) [CBK267762],104%
18,CC(C)C(=O)Nc1cc2cccnc2nc1-c1ccccc1 [CBK073647],94.7%
19,OCCN1CCN(C(c2ccccc2)c2sc3ncnn3c2O)CC1 (stereo not drawn) [CBK287611],82.5%
20,O=C(c1cccnc1)C1CCN(C(=O)Cc2ccccc2Cl)CC1 [CBK283690],90.3%
21,NCCN(Cc1cccc(Cl)c1)C(=O)NC(c1ccccc1)c1ccccc1 [CBK046203C],90.8%
22,COc1ccc(-n2cc(-c3ccc(F)cc3)nn2)cc1OC [CBK113110],89.8%
23,COC(=O)C1=C(C)N(CCc2ccc(OC)c(OC)c2)C(=O)/C1=C\c1ccc(O)cc1 [CBK263722],89.6%

row,SMILES,"viability at 28.5 h, 10 µM"
1,CS(=O)(=O)N(CC(=O)N1CCN(Cc2ccc3c(c2)OCO3)CC1)c1cccc(C(F)(F)F)c1 [CBK265329],77.7%
2,O=C(NCc1n[nH]c(=O)c2ccccc12)Nc1ccc(F)cc1 [CBK287744],94.2%
3,Cc1cc(CNC(=O)N2CCCC(CO)C2)no1 (stereo not drawn) [CBK156028],94.5%
4,C(=N\N1CCOCC1)/c1ccc2c(c1)OCO2 [CBK026446],108%
5,CCn1nc(NC(=O)CCn2c(C(F)F)cc3cccnc32)cc1C [CBK285072],83.8%
6,COC(=O)c1cccc(CCC2CC(=O)C=C(O)C2)c1 (stereo not drawn) [CBK012720],93.7%
7,Cn1nc(C(C)(C)C)c2cc(C(=O)N3CCn4nccc43)cnc21 [CBK305466],93.3%
8,O=C(O)C(=C/C=C/Br)C(=O)O [CBK260906],92.6%
9,CCCCC(=O)Nc1nc(-c2ccc(S(=O)(=O)N3CCOCC3)cc2)cs1 [CBK096107],86%
10,CN(Cc1ccc2c(c1)OCO2)C(=O)c1cnn2c(-c3ccccc3)ccnc12 [CBK298276],95%
11,CCn1c(CN2CCCC2c2nc(N(C)C)ncc2-c2ccc(F)cc2)nc2ccccc21 (stereo not drawn) [CBK285974],94.9%
12,CCNS(=O)(=O)c1ccc(NS(=O)(=O)Cc2ccccc2)cc1 [CBK268257],100%
13,COc1cc(CNCCc2c[nH]c3ccccc23)cc(Cl)c1OC [CBK269861C],88.5%
14,CCN(Cc1cnn(C)c1)S(=O)(=O)c1ccc2c(c1)CCCC(=O)N2 [CBK304782],100%
15,O=C(O)C1CCN(C2CC(=O)N(Cc3ccccc3)C2=O)CC1 (stereo not drawn) [CBK287206],84.8%
16,CCC(Sc1ccc2nnc(-c3cccnc3)n2n1)C(=O)O (stereo not drawn) [CBK287623],110%
17,CCOC(=O)c1nc(C)sc1-c1ccnn1S(C)(=O)=O [CBK007130],108%
18,COC(=O)C1CC(O)CN1S(=O)(=O)c1cccs1 (stereo not drawn) [CBK086668],87%
19,Cc1cc(Cl)ccc1CNC(=O)C1(c2ccccc2)CCCC1 [CBK149519],88.6%
20,Cn1c(N2CCC(C(=O)NC3CC3)CC2)nc2ccccc21 [CBK283940],97.9%
21,Cn1c(N2CC[C@H](O)C2)nc2cc(C(=O)NCCn3cccc3)ccc21 [CBK307480],83.6%
22,CC1CCc2c(sc3ncnc(OCC(=O)N4CCOCC4)c23)C1 (stereo not drawn) [CBK306000],95.9%
23,COc1ccc(C(=O)N2CCN(c3nc4c(s3)c(C)nn4C)CC2)cc1 [CBK307457],96%

row,SMILES,"viability at 28.5 h, 10 µM"
1,O=C(O)CCCc1nc(-c2cnc3n(c2=O)CCS3)no1 [CBK008438],90.1%
2,COc1ccc2[nH]c(/C(C#N)=C\c3ccc(-c4cc(C(=O)O)ccc4Cl)o3)nc2c1 [CBK268370],90.4%
3,CCOc1cc(OCC)cc(C(=O)N2CCC3(CC2)NC(=O)c2ccc(C)cc2O3)c1 [CBK166215],117%
4,Cc1ccsc1CN(C)C(=O)NC1CCCc2c1cnn2CCO (stereo not drawn) [CBK306349],83%
5,Cc1ccc(C(=O)NCCNC(=O)CN2CCCC2)cc1 [CBK264103],92.5%
6,CN1CCC(N(C)C(=O)NCc2ccc(C#N)cc2)C1 (stereo not drawn) [CBK156005],89.3%
7,O=C(O)c1sc2c(ccc3ccccc32)c1Br [CBK018387],90.4%
8,CCOC(=O)CN1CCCN(c2c(F)cc(C#N)cc2F)CC1 [CBK304148],86.9%
9,COc1ccc(-c2ccc(CCC(=O)O)n2CCc2ccccc2)cc1 [CBK265929],115%
10,CS(=O)(=O)c1ncc(Cl)c(C(=O)N(Cc2ccccc2)c2ccccn2)n1 [CBK269489],95%
11,COc1cccc(CNC23CC4CC(CC(C4)C2)C3)c1OCc1ccccc1 [CBK268873C],92%
12,COc1cc(CNC2CCCc3c2cnn3C)c(O)c(C(C)(C)C)c1 (stereo not drawn) [CBK304716],84.4%
13,CC(NC1CCCN(c2ccc(C#N)cc2)C1=O)c1cncc(F)c1 (stereo not drawn) [CBK306404],90.7%
14,COc1ccc(NC(=O)c2ccc3nsnc3c2)cc1 [CBK263160],92.6%
15,CC(C)c1cc2c(s1)NC(c1ccccc1)NC2=O (stereo not drawn) [CBK288209],92.9%
16,Cc1ccc(Cc2cnc(NC(=O)C3CCOCC3)s2)cc1F [CBK306130],77.5%
17,COc1cccc(NC(=O)c2sc(N)nc2-c2ccccc2)c1 [CBK072023],95.2%
18,Cc1nn(-c2ccccc2)c2sncc12 [CBK006869],109%
19,Cc1nc(C(=O)NC2CC(=O)N(CCc3ccc(F)cc3)C2)cs1 (stereo not drawn) [CBK307473],100%
20,CC(=O)N1CCC2(C/C=C/C[C@H]3CN(CCO)CC[C@H]3NC(=O)CNC2=O)CC1 [CBK292139],92.8%
21,CC(=O)c1ccccc1-c1ccc(C(=O)NCCc2ccccn2)c(NCC2CC2)n1 [CBK076580],98.8%

# From article PMC12040169 (PLOS Biology, 2025)
